Laboratory results published in patent US9615577B2, “Herbicidally active cyclic dione compounds, or derivatives therefor, substituted by a phenyl which has an alkynyl-containing substituent” (Syngenta Limited, priority 2012, dated 2017).

Key:
Assay type in all cases: in vivo
[1] = tested on: Brachiaria plantaginea (BRAPL); assay: Test 1B glasshouse assay for herbicidal activity, post-emergence; conditions: Urochloa plantaginea; for pest or weed control at 30 g/ha: 30 g/ha application rate; for pest or weed control at 125 g/ha: 125 g/ha application rate
Procedure, shortened: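 Seeds sown in standard soil; sprayed after 1 day (pre-emergence) or ~12 days (post-emergence) with active ingredient from a 50 g/liter IF50 formulation diluted in 0.2% v/v X-77 aqueous adjuvant. Glasshouse at 24/18° C. day/night, 16 h light, 65% humidity; visual % phytotoxicity scored 20 DAA (pre) or 15 DAA (post).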

[2] = tested on: Abutilon theophasti Medik. (ABUTH); assay: Test 1A glasshouse assay for herbicidal activity, pre-emergence; conditions: 312 h, evaluated after 13 days, read-out: percentage phytotoxicity ABUTH
Procedure, shortened: (§1)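 Glasshouse spray test with visual phytotoxicity scoring (0–100%) after 13 days. Application timing: 1 day after sowing or after 8 days' cultivation, in 0.5% Tween 20 acetone/water.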

[3] = tested on: Brachiaria plantaginea (BRAPL); assay: Test 1B glasshouse assay for herbicidal activity, pre-emergence; conditions: Urochloa plantaginea, 480 h, 20 DAA, read-out: percentage phytotoxicity BRAPL
Experimental: Seeds of a variety of monocotyledonous and dicotyledonous test plants are sown in standard soil in pots. The plants are cultivated for one day (for pre-emergence) or for about 12 days (range=10-13 days) (for post-emergence) under controlled conditions in a glasshouse (warm climate species at 24/18° C., cool climate species at 20/16° C., both at day/night; 16 hours light; 65% humidity).
An “instant formulation”, known as the “IF50”, containing 50 g/liter (i.e. 5% w/v) of the “technical” (i.e. unformulated) active ingredient is prepared by dissolving the active ingredient in a mixture of organic solvents and emulsifier, details of which are provided in the Table below. This IF50 is then mixed with a small, variable amount of acetone to aid dissolution, before addition of a 0.2% v/v aqueous solution of the adjuvant X-77 (which is a mixture of alkyl aryl polyoxyethylene glycols and free fatty acids in isopropanol, CAS Registry number 11097-66-8), as the aqueous diluent, to form an aqueous spray solution which contains a predetermined concentration of the active ingredient (which varies depending on the application rate of the active ingredient to the plants) and 0.2% v/v of the adjuvant X-77. This aqueous spray solution is then sprayed onto the plants, after one day's cultivation (for pre-emergence) or after about 12 days' cultivation (for post-emergence).
The test plants are then grown on, in a glasshouse (greenhouse) under controlled conditions (at either 24/18° C. or 20/16° C. (day/night) as mentioned above; 16 hours light; 65% humidity) and are watered twice daily. Either 15 days after application of the herbicide (15 DAA) (for post-emergence), or 20 days after application of the herbicide (20 DAA) (for pre-emergence), the test plants are evaluated visually, and an assessed percentage phytotoxicity score is given for each herbicidal application on each plant species (where 100%=total damage to plant; 0%=no damage to plant).
Warm climate (“warm season”) grassy monocotyledonous weeds: Setaria faberi (SETFA), SORVU (Sorghum bicolor (L.) Moench ssp. Bicolor, or Sorghum vulgare Pers.), Digitaria sanguinalis (DIGSA), Echinochloa crus-galli (ECHCG), and Brachiaria plantaginea (BRAPL).

[4] = tested on: Abutilon theophasti Medik. (ABUTH); assay: Biological Example 2 comparative herbicidal data, post-emergence glasshouse screen; conditions: read-out: Post-emergence herbicidal activities (percentage phytotoxicity) ABUTH; for pest or weed control at 8 g/ha: 8 g/ha application rate; for pest or weed control at 30 g/ha: 30 g/ha application rate
[5] = tested on: Amarantus retroflexus (AMARE); assay: as above; conditions: Amaranthus retroflexus, read-out: Post-emergence herbicidal activities (percentage phytotoxicity) AMARE; for pest or weed control at 8 g/ha: 8 g/ha application rate; for pest or weed control at 30 g/ha: 30 g/ha application rate
[6] = tested on: Abutilon theophasti Medik. (ABUTH); assay: Test 1A glasshouse assay for herbicidal activity, post-emergence; conditions: 312 h, evaluated after 13 days, read-out: percentage phytotoxicity ABUTH
Procedure, shortened: as §1

[7] = tested on: Alopecurus myosuroides (ALOMY); assay: Biological Example 2 comparative herbicidal data, post-emergence glasshouse screen; conditions: 312 h, read-out: Post-emergence herbicidal activities (percentage phytotoxicity) ALOMY; for pest or weed control at 8 g/ha: 8 g/ha application rate; for pest or weed control at 30 g/ha: 30 g/ha application rate
Procedure, shortened: (§2)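 Plants grown 8 days in a glasshouse (24/16°C day/night, 14 h light, 65% humidity) were sprayed with compound in acetone/water (50:50) containing 0.5% Tween 20. They were kept under the same conditions and watered twice daily. Phytotoxicity was scored visually after 13 days (0 = no damage, 100 = total damage).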

[8] = tested on: Echinochloa crus-galli (ECHCG); assay: as above; conditions: 312 h, read-out: Post-emergence herbicidal activities (percentage phytotoxicity) ECHCG; for pest or weed control at 8 g/ha: 8 g/ha application rate; for pest or weed control at 30 g/ha: 30 g/ha application rate
Procedure, shortened: as §2

Setaria faberi (SETFA) = assay: as above; conditions: 312 h, read-out: Post-emergence herbicidal activities (percentage phytotoxicity) SETFA; for pest or weed control at 8 g/ha: 8 g/ha application rate; for pest or weed control at 30 g/ha: 30 g/ha application rate
Procedure, shortened: as §2

Solanum nigrum (SOLNI) [9] = assay: Test 1A glasshouse assay for herbicidal activity, pre-emergence; conditions: 312 h, evaluated after 13 days, read-out: percentage phytotoxicity SOLNI
Procedure, shortened: as §1

[10] = tested on: Ipomoea hederacea (IPOHE); assay: as above; conditions: 312 h, evaluated after 13 days, read-out: percentage phytotoxicity IPOHE
Procedure, shortened: as §1

Solanum nigrum (SOLNI) [11] = assay: Test 1A glasshouse assay for herbicidal activity, post-emergence; conditions: 312 h, 250 g/ha, evaluated after 13 days, read-out: percentage phytotoxicity SOLNI
Procedure, shortened: as §1

[12] = tested on: Ipomoea hederacea (IPOHE); assay: as above; conditions: 312 h, 250 g/ha, evaluated after 13 days, read-out: percentage phytotoxicity IPOHE
Procedure, shortened: as §1

SMILES	pest or weed control at 30 g/ha [1] [%]	pest or weed control at 125 g/ha [1] [%]	pest or weed control at 250 g/ha [2] [%]	pest or weed control at 8 g/ha [4] [%]	pest or weed control at 30 g/ha [4] [%]	pest or weed control at 8 g/ha [5] [%]	pest or weed control at 30 g/ha [5] [%]	pest or weed control at 30 g/ha [6] [%]	pest or weed control at 250 g/ha [6] [%]	pest or weed control at 8 g/ha [7] [%]	pest or weed control at 30 g/ha [7] [%]	pest or weed control at 8 g/ha [8] [%]	pest or weed control at 30 g/ha [8] [%]	pest or weed control at 8 g/ha (Setaria faberi (SETFA)) [%]	pest or weed control at 30 g/ha (Setaria faberi (SETFA)) [%]	further results
CC#Cc1cc(C)c(C2C(=O)C3CCC(C3)C2=O)c(C)c1 (stereo not shown) [Compound A-5]	90	100	0	0	0	0	10	0	60	50	80	80	100	30	70	pest or weed control at 60 g/ha ([1]; 60 g/ha application rate): 100%; pest or weed control at 500 g/ha ([1]; 500 g/ha application rate): 100%; pest or weed control at 500 g/ha ([3]; 500 g/ha): 100%
CC#Cc1cc(C)c(C2=C(OC(=O)OC)CC(c3ccccn3)CC2=O)c(C)c1 (stereo not shown) [Compound A-14]	70	100	70						80							pest or weed control at 250 g/ha [3]: 90%
CC#Cc1cc(Cl)c(C2C(=O)C3CCC(C3)C2=O)c(OC)c1 (stereo not shown) [Compound A-12]	70	100	0	10	40	0	0		50 to 60	40	90	90	100	50	90	pest or weed control at 62.5 g/ha ([2]; 62.5 g/ha): 0%; pest or weed control at 250 g/ha [3]: 100%; pest or weed control at 62.5 g/ha ([6]; 62.5 g/ha): 0%
CC#Cc1cc(C)c(C2C(=O)CC(c3ccccn3)CC2=O)c(C)c1 (stereo not shown) [Compound A-13]		100	70	0	40	0	30	40	80	60	70	80	80	80	90	pest or weed control at 30 g/ha ([2]; 30 g/ha): 30%; pest or weed control at 250 g/ha [3]: 90%
CC#Cc1cc(Cl)c(C2C(=O)C3CCC(C3)C2=O)c(OCC)c1 (stereo not shown) [Compound A-16]			70					60	60							
CC#Cc1cc(C)c(C2C(=O)C3CCC(C3)C2=O)c(OC)c1 (stereo not shown) [Compound A-10]	90	100	0						80							pest or weed control at 125 g/ha [3]: 80%
CC#Cc1cc(C)c(C2=C(OC(C)=O)CC(c3ccccn3)CC2=O)c(C)c1 (stereo not shown) [Compound A-15]	100	100	50					20	80							pest or weed control at 125 g/ha [3]: 90%
CC#Cc1cc(C)c(C2C(=O)CC(CC3CCOCC3)CC2=O)c(C)c1 (stereo not shown) [Compound A-9]																pest or weed control at 250 g/ha (Solanum nigrum (SOLNI) [9]): 70%; pest or weed control at 250 g/ha [10]: 20%; pest or weed control at 250 g/ha (Solanum nigrum (SOLNI) [11]): 80%; pest or weed control at 250 g/ha [12]: 50%; pest or weed control at 15.625 g/ha ([7]; 15.625 g/ha application rate): 80%; pest or weed control at 62.5 g/ha ([7]; 62.5 g/ha application rate): 90%; pest or weed control at 15.625 g/ha ([8]; 15.625 g/ha application rate): 100%; pest or weed control at 62.5 g/ha ([8]; 62.5 g/ha application rate): 100%; pest or weed control at 15.625 g/ha (Setaria faberi (SETFA); 15.625 g/ha application rate): 80%; pest or weed control at 62.5 g/ha (Setaria faberi (SETFA); 62.5 g/ha application rate): 90%
CC#Cc1cc(Cl)c(C2C(=O)C3CCC(C)(C2=O)C3(C)C)c(OC)c1 (stereo not shown) [Compound A-17]			70						10							
CC#Cc1cc(C)c(C2C(=O)CC(CCSC)CC2=O)c(C)c1 (stereo not shown) [Compound A-21, 2-(2,6-Dimethyl-4-prop-1-ynyl-phenyl)-5-(2-methylsulfanyl-ethyl)cyclohexane-1,3-dione]			10	70	10	30	80	10	60	50	50	80	80	50	70	
CC#Cc1cc(Cl)c(C2C(=O)CC3(CCOCC3)CC2=O)c(OC)c1 [Compound A-20, 9-(2-Chloro-6-methoxy-4-prop-1-ynyl-phenyl)-3-oxa-spiro[5.5]undecane-8,10-dione]			80	50	80	10	80	80	80	90	100	100	100	90	100	pest or weed control at 8 g/ha ([6]; 8 g/ha): 50%
